Measured values from PubChem BioAssay (NCI).
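Test compounds were applied to cells in 96-well plates for 48 hours at 5 doses. The concentration for full growth arrest is given as TGI.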

What was measured:
Assay in all cases: NCI anticancer screen, dose series, 48 h
[1] = tested on: 786-0 renal
[2] = tested on: ACHN renal
[3] = tested on: CAKI-1 renal
[4] = tested on: CCRF-CEM leukemia
[5] = tested on: HL-60(TB) leukemia
[6] = tested on: HS 578T breast
[7] = tested on: KM12 colon
[8] = tested on: LOX IMVI melanoma
[9] = tested on: M14 melanoma
[10] = tested on: NCI-H226 lung
[11] = tested on: NCI-H23 lung
[12] = tested on: NCI/ADR-RES ovarian
[13] = tested on: OVCAR-3 ovarian
[14] = tested on: OVCAR-8 ovarian
[15] = tested on: PC-3 prostate
[16] = tested on: RPMI-8226 leukemia
[17] = tested on: SK-MEL-28 melanoma
[18] = tested on: SK-OV-3 ovarian
[19] = tested on: U251 CNS
[20] = tested on: UO-31 renal

Row | Structure (SMILES) | TGI [1] [µM] | TGI [2] [µM] | TGI [3] [µM] | TGI [4] [µM] | TGI [5] [µM] | TGI [6] [µM] | TGI [7] [µM] | TGI [8] [µM] | TGI [9] [µM] | TGI [10] [µM] | TGI [11] [µM] | TGI [12] [µM] | TGI [13] [µM] | TGI [14] [µM] | TGI [15] [µM] | TGI [16] [µM] | TGI [17] [µM] | TGI [18] [µM] | TGI [19] [µM] | TGI [20] [µM]
1 | O=S(=O)(SC1=NCCN1)c1ccc2ccccc2c1 | 97.1 | > 100 | > 100 | 68 | 38.4 | > 100 | 44.1 | > 100 | 63.6 | 98 | 61.8 | 51.8 | 97.2 | 40.5 | > 100 | 64 | > 100 | 54.7 | 54.1 | > 100
2 | COc1ccc(C[C@@H](CO)NC2=C(C#N)CCC2)cc1 | > 100 | > 100 | > 100 | > 100 | 27.8 | 93 | 63.5 | > 100 | > 100 | > 100 | > 100 | > 100 | > 100 | > 100 | > 100 | 59.6 | > 100 | > 100 | > 100 | > 100
3 | O=c1[nH]nc(-c2ccccc2)n1/N=C/c1ccc([N+](=O)[O-])cc1 | 22.9 | > 100 | > 59.3 | > 100 | > 100 | 98.2 | > 100 | > 100 | > 100 | > 75 | > 100 | > 68.9 | > 100 | 37.1 | > 100 | > 100 | > 100 | 9.34 | 20.8 | > 38.1
4 | COC(=O)C1=C(O)C(C(=O)OC)[C@]2(O)[C@H](C(=O)OC)[C@H]1C[C@@H](c1ccc(Cl)cc1)[C@H]2C(=O)OC (stereo partly drawn) | 23.9 | 39.9 | > 100 | > 100 | 12.9 | 30.2 | 46.6 | 30.1 | 19.5 | 38.2 | 22.9 | > 100 | 13.4 | > 100 | 18.8 | > 100 | 21.4 | 23.4 | 20.9 | 21.4
5 | Cc1cc2cc3c(cc2c(-c2ccc([N+](=O)[O-])cc2)n1)OCO3 | 42.5 | > 100 | > 100 | > 100 | > 100 | > 100 | > 100 | > 100 | > 100 | 89.8 | > 100 | > 100 | > 100 | > 100 | > 100 | > 100 | > 100 | 71.2 | > 100 | > 100
6 | COc1ccc(/C=C2\CCC(C)C3C2=NN(c2ccccc2)C3c2ccc(OC)c(OC)c2)cc1OC (stereo not drawn) | 14.5 | 14.6 | 15.6 | 10.2 | 7.07 | > 100 | 6.46 | 8.63 | 43.3 | 12.9 | 16.9 | 18.3 | > 100 | 25.3 | 51.6 | 4.3 | 31.6 | 20.2 | > 100 | 22.1
7 | O=C1N=C(SC2OC(CO)C(O)C(O)C2O)S/C1=C\c1ccccc1 (stereo not drawn) | > 100 | > 100 | > 100 | > 100 | > 100 | > 100 | > 100 | > 100 | > 100 | > 100 | > 100 | > 100 | > 100 | > 100 | > 100 | > 100 | > 100 | > 100 | – | > 100
8 | CO/C(N)=C(\C#N)N=Cc1ccco1 | > 100 | > 100 | > 100 | > 100 | > 100 | > 100 | > 100 | > 100 | > 100 | > 100 | > 100 | > 100 | > 100 | > 100 | > 100 | > 100 | > 100 | > 100 | > 100 | > 100
9 | COc1cc2ncnc(Nc3cccc(Cl)c3)c2cc1OC | 44.1 | 54.5 | 25.5 | 19.6 | 62.4 | 25 | 28.8 | 43 | 25.4 | 14.8 | 44.5 | 20.3 | 35.8 | 26.1 | 70.2 | 42.3 | 42.6 | 28.9 | 79.4 | 44
10 | Cc1cc2c(cc1C(=O)CCC(=O)O)CC1(C2)Cc2cc(C)c(C(=O)CCC(=O)O)cc2C1 | > 100 | > 100 | > 100 | > 100 | > 100 | > 100 | > 100 | > 100 | > 100 | > 100 | > 100 | > 100 | > 100 | > 100 | > 100 | > 100 | > 100 | > 100 | > 100 | > 100
11 | COC(=O)C1=C(O)C(C(=O)OC)[C@]2(O)[C@H](C(=O)OC)[C@H]1C[C@@H](c1ccc(OC)c(OC)c1)[C@H]2C(=O)OC (stereo partly drawn) | > 100 | > 100 | > 100 | > 100 | 62.9 | > 100 | 54.5 | 29.6 | > 100 | 29 | > 100 | 54.5 | 62.5 | 31.1 | > 100 | 19.1 | 90.7 | 68.2 | 25.3 | > 100
12 | C[N+](C)(C)CCCSc1nc2ccccc2[nH]1 | > 100 | > 100 | > 100 | > 100 | > 100 | > 100 | > 100 | > 100 | > 100 | > 100 | > 100 | > 100 | > 100 | > 100 | > 100 | > 100 | > 100 | > 100 | > 100 | > 100
13 | COc1cc(/C=N\N(C)C)cc(/C=N/N(C)C)c1O | 74.1 | 87.9 | 52.1 | 72.4 | > 100 | 20.9 | > 100 | 58.7 | 83.9 | 50.6 | > 100 | > 100 | 53.4 | – | 96.2 | 50.2 | 59.7 | 55.4 | 74.8 | 79.5
14 | CCOC(=O)CCCNC(=O)CCCCC(=O)N(C)C | > 100 | > 100 | > 100 | > 100 | > 100 | > 100 | > 100 | > 100 | > 100 | > 100 | > 100 | > 100 | > 100 | > 100 | > 100 | > 100 | > 100 | > 100 | > 100 | > 100
15 | COc1nc(N=P(c2ccccc2)(c2ccccc2)c2ccccc2)cc(=O)[nH]1 | > 100 | > 100 | > 100 | > 100 | > 100 | > 100 | > 100 | > 100 | > 100 | > 100 | > 100 | > 100 | > 100 | > 100 | > 100 | > 100 | > 100 | > 100 | > 100 | > 100
16 | CN(C)/N=C(/CC(O)(C(F)(F)F)C(F)(F)F)c1ccc([N+](=O)[O-])cc1 | > 100 | > 100 | > 100 | > 100 | > 100 | > 100 | > 100 | > 100 | > 100 | > 100 | > 100 | > 100 | > 100 | > 100 | > 100 | > 100 | > 100 | > 100 | > 100 | > 100
17 | CC1(C)C2CCC(CN)(C2)C1N (stereo not drawn) | > 100 | > 100 | > 100 | > 100 | > 100 | > 100 | > 100 | > 100 | > 100 | > 100 | > 100 | > 100 | > 100 | > 100 | > 100 | > 100 | > 100 | > 100 | > 100 | > 100
18 | O=c1oc2ccccc2cc1-c1csc(Nc2ccc(F)cc2)n1 | 3.17 | 26.3 | 10.6 | 16.3 | 35.3 | 4.61 | 18.4 | 14.9 | 13.6 | 19.7 | 11 | 13 | 19.6 | 23.5 | 19.3 | 4.44 | 6.6 | 15.6 | 9.55 | 6.42
19 | CCCCCCCCCCCCN(CC(O)C(O)C(OC1OC(CO)C(O)C(O)C1O)C(O)CO)C(=O)CCCCCCCCCCC (stereo not drawn) | 33.8 | 31 | 33.3 | 65.1 | > 100 | 82.7 | 36.7 | 41.3 | 39.7 | 44.6 | 46.2 | 49.7 | 49.2 | 46.7 | 52.9 | 50.9 | 31.9 | 52.6 | 32.6 | 45.8
20 | COc1ccc2c(c1)-c1nc(=S)n(CCCN(C)C)c3ccc([N+](=O)[O-])c(c13)N2 | 1.36 | 14.4 | 19.8 | 1.41 | 1.64 | 5.6 | 6.31 | 4.57 | 22.1 | 24.4 | 4.31 | 9.23 | 18.5 | 6.5 | 17.4 | 4.31 | 2.81 | 19.4 | 17.7 | 1.82
21 | O=C1CSSCC(=O)Nc2ccccc2N1 | > 100 | > 100 | > 100 | > 100 | > 100 | > 100 | > 100 | > 100 | > 100 | > 100 | > 100 | > 100 | > 100 | > 100 | > 100 | > 100 | > 100 | > 100 | > 100 | > 100
22 | Cc1ccc([N+](=O)[O-])cc1S(=O)(=O)Nc1ccc(C2=NN(c3ccc([N+](=O)[O-])cc3[N+](=O)[O-])C(c3cccs3)C2)cc1 (stereo not drawn) | 38.6 | 81.6 | > 100 | > 100 | 62.9 | 79.1 | 55.6 | 39.9 | 32.9 | 60.1 | 44.1 | 41.4 | 34.4 | 92.1 | > 100 | 60.5 | > 100 | 77.9 | 72.3 | > 100
23 | CCOC(=O)C1(Cc2ccccc2)C=CN(C(=O)c2ccccc2)C=C1 | > 100 | > 100 | > 100 | 61.5 | 45.7 | > 100 | > 100 | > 100 | > 100 | > 100 | > 100 | > 100 | > 100 | > 100 | > 100 | 48.6 | > 100 | > 100 | > 100 | > 100
